# From PubChem BioAssay (NCI)
#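 Briefly, cells in 96-well plates were exposed to five compound concentrations for 48 h, and endpoints were estimated by linear interpolation. TGI: concentration producing complete growth inhibition.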
# Assays:
# Test in all cases: NCI tumour cell line growth inhibition, 48 h
# M14 melanoma = system: M14 melanoma
# HS 578T breast = system: HS 578T breast
# TK-10 renal = system: TK-10 renal
# KM12 colon = system: KM12 colon
# NCI-H226 lung = system: NCI-H226 lung
# OVCAR-4 ovarian = system: OVCAR-4 ovarian
# EKVX NSCLC = system: EKVX NSCLC
# MCF7 breast = system: MCF7 breast
# SNB-19 CNS = system: SNB-19 CNS
# OVCAR-5 ovarian = system: OVCAR-5 ovarian
# HOP-92 NSCLC = system: HOP-92 NSCLC
# U251 CNS = system: U251 CNS
# MALME-3M melanoma = system: MALME-3M melanoma
# SK-MEL-5 melanoma = system: SK-MEL-5 melanoma
# NCI-H460 lung = system: NCI-H460 lung
# HCC-2998 colon = system: HCC-2998 colon
# HCT-15 colon = system: HCT-15 colon
# SN12C renal = system: SN12C renal
# SF-268 CNS = system: SF-268 CNS
# NCI-H522 lung = system: NCI-H522 lung
# COLO 205 colon = system: COLO 205 colon
# 786-0 renal = system: 786-0 renal
# LOX IMVI melanoma = system: LOX IMVI melanoma
# SW-620 colon = system: SW-620 colon
# MDA-MB-435 = system: MDA-MB-435
# UACC-257 melanoma = system: UACC-257 melanoma
# SK-MEL-2 melanoma = system: SK-MEL-2 melanoma
# NCI/ADR-RES ovarian = system: NCI/ADR-RES ovarian
# CAKI-1 renal = system: CAKI-1 renal
# RXF 393 renal = system: RXF 393 renal
# SK-OV-3 ovarian = system: SK-OV-3 ovarian
# A549 NSCLC = system: A549 NSCLC
# K-562 leukemia = system: K-562 leukemia
# UO-31 renal = system: UO-31 renal
# IGROV1 ovarian = system: IGROV1 ovarian
# MDA-MB-231 breast = system: MDA-MB-231 breast
# HOP-62 NSCLC = system: HOP-62 NSCLC
# NCI-H23 lung = system: NCI-H23 lung
# SF-539 CNS = system: SF-539 CNS
# BT-549 breast = system: BT-549 breast
# OVCAR-3 ovarian = system: OVCAR-3 ovarian
# MDA-N = system: MDA-N
# MOLT-4 leukemia = system: MOLT-4 leukemia
# DU-145 prostate = system: DU-145 prostate
# CCRF-CEM leukemia = system: CCRF-CEM leukemia
# RPMI-8226 leukemia = system: RPMI-8226 leukemia
# ACHN renal = system: ACHN renal
# SK-MEL-28 melanoma = system: SK-MEL-28 melanoma
# SNB-75 CNS = system: SNB-75 CNS
# SF-295 CNS = system: SF-295 CNS
# A498 renal = system: A498 renal
# UACC-62 melanoma = system: UACC-62 melanoma
# HT29 colon = system: HT29 colon
# HL-60(TB) leukemia = system: HL-60(TB) leukemia
# PC-3 prostate = system: PC-3 prostate
# SR leukemia = system: SR leukemia
# OVCAR-8 ovarian = system: OVCAR-8 ovarian
# HCT-116 colon = system: HCT-116 colon
# T-47D breast = system: T-47D breast
smiles,measurement,setting,value
COc1cc(C2SCC(=O)N2c2ccc(Cl)c(Cl)c2)cc(OC)c1OC (configuration not stated),TGI,M14 melanoma,> 100 µM
same,TGI,HS 578T breast,> 100 µM
same,TGI,TK-10 renal,> 100 µM
same,TGI,KM12 colon,51 µM
same,TGI,NCI-H226 lung,> 79.4 µM
same,TGI,OVCAR-4 ovarian,> 100 µM
same,TGI,EKVX NSCLC,> 87.9 µM
same,TGI,MCF7 breast,> 100 µM
same,TGI,SNB-19 CNS,> 100 µM
same,TGI,OVCAR-5 ovarian,98.3 µM
same,TGI,HOP-92 NSCLC,> 100 µM
same,TGI,U251 CNS,> 100 µM
same,TGI,MALME-3M melanoma,> 100 µM
same,TGI,SK-MEL-5 melanoma,> 100 µM
same,TGI,NCI-H460 lung,> 100 µM
same,TGI,HCC-2998 colon,> 100 µM
same,TGI,HCT-15 colon,> 100 µM
same,TGI,SN12C renal,> 100 µM
same,TGI,SF-268 CNS,> 100 µM
same,TGI,NCI-H522 lung,> 100 µM
same,TGI,COLO 205 colon,> 100 µM
same,TGI,786-0 renal,> 100 µM
same,TGI,LOX IMVI melanoma,> 100 µM
same,TGI,SW-620 colon,> 100 µM
same,TGI,MDA-MB-435,34 µM
same,TGI,UACC-257 melanoma,> 100 µM
same,TGI,SK-MEL-2 melanoma,> 100 µM
same,TGI,NCI/ADR-RES ovarian,> 100 µM
same,TGI,CAKI-1 renal,> 100 µM
same,TGI,RXF 393 renal,43.5 µM
same,TGI,SK-OV-3 ovarian,> 100 µM
same,TGI,A549 NSCLC,> 100 µM
same,TGI,K-562 leukemia,> 100 µM
same,TGI,UO-31 renal,> 100 µM
same,TGI,IGROV1 ovarian,> 100 µM
same,TGI,MDA-MB-231 breast,> 100 µM
same,TGI,HOP-62 NSCLC,> 100 µM
same,TGI,NCI-H23 lung,> 100 µM
same,TGI,SF-539 CNS,> 100 µM
same,TGI,BT-549 breast,98 µM
same,TGI,OVCAR-3 ovarian,> 100 µM
same,TGI,MDA-N,45.9 µM
same,TGI,MOLT-4 leukemia,> 67 µM
same,TGI,DU-145 prostate,> 100 µM
same,TGI,CCRF-CEM leukemia,51.3 µM
same,TGI,RPMI-8226 leukemia,> 78.6 µM
same,TGI,ACHN renal,> 100 µM
same,TGI,SK-MEL-28 melanoma,> 100 µM
same,TGI,SNB-75 CNS,> 100 µM
same,TGI,SF-295 CNS,> 100 µM
same,TGI,A498 renal,> 100 µM
same,TGI,UACC-62 melanoma,> 21.9 µM
same,TGI,HT29 colon,> 100 µM
same,TGI,HL-60(TB) leukemia,> 73.9 µM
same,TGI,PC-3 prostate,> 100 µM
same,TGI,SR leukemia,83.8 µM
same,TGI,OVCAR-8 ovarian,> 100 µM
same,TGI,HCT-116 colon,> 100 µM
same,TGI,T-47D breast,> 63.6 µM
CCO/C=N/NC(=O)CSc1nc2ccc(I)cc2c(=O)n1Cc1ccccc1,TGI,M14 melanoma,> 100 µM
same,TGI,HS 578T breast,> 100 µM
same,TGI,TK-10 renal,> 100 µM
same,TGI,KM12 colon,> 100 µM
same,TGI,NCI-H226 lung,> 100 µM
same,TGI,OVCAR-4 ovarian,> 100 µM
same,TGI,EKVX NSCLC,> 100 µM
same,TGI,MCF7 breast,> 100 µM
same,TGI,SNB-19 CNS,> 100 µM
same,TGI,OVCAR-5 ovarian,> 100 µM
same,TGI,HOP-92 NSCLC,> 100 µM
same,TGI,U251 CNS,> 100 µM
same,TGI,SK-MEL-5 melanoma,> 100 µM
same,TGI,NCI-H460 lung,> 100 µM
same,TGI,HCC-2998 colon,> 100 µM
same,TGI,HCT-15 colon,> 100 µM
same,TGI,SN12C renal,> 100 µM
same,TGI,SF-268 CNS,> 100 µM
same,TGI,NCI-H522 lung,13.3 µM
same,TGI,COLO 205 colon,> 100 µM
same,TGI,786-0 renal,> 100 µM
same,TGI,LOX IMVI melanoma,> 100 µM
same,TGI,SW-620 colon,> 100 µM
same,TGI,MDA-MB-435,> 100 µM
same,TGI,UACC-257 melanoma,> 100 µM
same,TGI,SK-MEL-2 melanoma,65.1 µM
same,TGI,NCI/ADR-RES ovarian,> 100 µM
same,TGI,CAKI-1 renal,> 100 µM
same,TGI,RXF 393 renal,> 100 µM
same,TGI,SK-OV-3 ovarian,> 100 µM
same,TGI,A549 NSCLC,> 100 µM
same,TGI,K-562 leukemia,> 100 µM
same,TGI,UO-31 renal,> 100 µM
same,TGI,IGROV1 ovarian,> 100 µM
same,TGI,MDA-MB-231 breast,> 100 µM
same,TGI,HOP-62 NSCLC,> 100 µM
same,TGI,NCI-H23 lung,> 100 µM
same,TGI,SF-539 CNS,> 100 µM
same,TGI,BT-549 breast,> 100 µM
same,TGI,OVCAR-3 ovarian,> 100 µM
same,TGI,MDA-N,> 100 µM
same,TGI,MOLT-4 leukemia,> 100 µM
same,TGI,DU-145 prostate,> 100 µM
same,TGI,CCRF-CEM leukemia,> 100 µM
same,TGI,RPMI-8226 leukemia,> 100 µM
same,TGI,ACHN renal,> 100 µM
same,TGI,SK-MEL-28 melanoma,> 100 µM
same,TGI,SNB-75 CNS,> 100 µM
same,TGI,SF-295 CNS,> 100 µM
same,TGI,A498 renal,> 100 µM
same,TGI,UACC-62 melanoma,> 100 µM
same,TGI,HT29 colon,> 100 µM
same,TGI,HL-60(TB) leukemia,> 100 µM
same,TGI,PC-3 prostate,> 100 µM
same,TGI,SR leukemia,> 100 µM
same,TGI,OVCAR-8 ovarian,> 100 µM
same,TGI,HCT-116 colon,> 100 µM
same,TGI,T-47D breast,> 100 µM
